Patent US6376682B1, “Compound with α-glucosidase inhibiting action and method for producing the same” (Takama System, Ltd., priority 2000, dated 2002)

Assays:
[1] = target: T1, isomaltase originating in the small intestines of rats (Rattus norvegicus, UniProt P23739); experiment: Inhibiting effect on isomaltase, rat jejunum brush border membrane crude enzyme; type: biochemical; conditions: times stronger than Acarbose
T1 construct: The brush border membrane obtained from the jejunum of male Wistar rats (body weight: 150 to 350 g) was used as a crude enzyme; from tissue; host or cells: jejunal brush border membrane of male Wistar rats
Method: The brush border membrane obtained from the jejunum of male Wistar rats (body weight: 150 to 350 g) was used as a crude enzyme.
The brush border membrane was suspended in a 0.01 M maleic acid buffer solution (pH=6.0), and this suspension was diluted to a concentration at which the substrate was hydrolyzed at the rate of approximately 25 to 50 n/mol/ml/minute.
For maltase, sucrase and isomaltase, 100 μL of various concentrations of the test drug was added to 50 μL of respective 74 mM maltose, sucrose and isomaltose (used as substrates), and the resulting preparations were pre-heated for 2 to 3 minutes at 37° C.
Next, 50 μL of the enzyme solution was added, and a reaction was performed for 30 minutes. The reaction was stopped by adding 800 μL of water, and placing the reaction mixture in a water bath at 92 to 97° C. for 2 minutes.
The amount of glucose produced was measured by the glucose oxidase method (Glucose CII Test Wako).
In the above, the substrates and test drug were both dissolved in a maleic acid buffer solution (pH=6.0) prior to use.

[2] = test system: β-glucosidase originating in almonds; experiment: Activity inhibiting effect on β-glucosidase; type: biochemical; conditions: substrate p-nitrophenol-β-D-glycopyronoside, pH 5.0
Method: β-glucosidase originating in almonds (manufactured by Sigma Co.) was dissolved in a 0.1 M acetic acid buffer solution (pH=5.0), and this solution was diluted to a concentration at which the substrate was hydrolyzed at the rate of 5 n/mol/ml/minute.
100 μL of the test drug was added to 50 μL of 10 mM p-nitrophenol-β-D-glycopyronoside (manufactured by Sigma Co.) used as a substrate, and this mixture was preheated for 5 minutes at 37° C.
Next, 50 μL of the enzyme solution was added, and a reaction was performed for 15 minutes. The reaction was stopped by adding 200 μL of a 0.2 M sodium carbonate solution.
The amount of p-nitrophenol produced was determined from the absorbance at 400 nm.
The substrate and test drug were both dissolved in a 0.1 M acetic acid buffer solution (pH=5.0) prior to use.

[3] = test system: blood sugar elevation caused by sucrose loading; experiment: Inhibiting effect on hyperglycemia in the case of sucrose loading; type: in vivo, male Wistar rats; conditions: rats; for Rate of inhibition of blood sugar elevation 30 minutes: po, 30 minutes after sucrose loading
Method: The test was oraly administered as an aqueous solution to fasting male Wistar rats (body weight: 130 to 170 g.
Next after 30 minutes, the sucrose was orally administered to the rats.
Then, 30 minutes, after the administered of the sugar, 0.4 ml of blood was taken from the neck artery of each animal with the animal under restraint without anesthesia (during blood collection only). following colling with ice water, the blood serum was separated by centrifuging, and the glucose concentration (blood sugar level) was measured by the glucose oxidase method (Glucose CII Test Wako).
The above-described test was performed for the novel compound SP (product of the present invention) and Acabose(clnventional roduct).

T1 sequence (P23739 whole entry): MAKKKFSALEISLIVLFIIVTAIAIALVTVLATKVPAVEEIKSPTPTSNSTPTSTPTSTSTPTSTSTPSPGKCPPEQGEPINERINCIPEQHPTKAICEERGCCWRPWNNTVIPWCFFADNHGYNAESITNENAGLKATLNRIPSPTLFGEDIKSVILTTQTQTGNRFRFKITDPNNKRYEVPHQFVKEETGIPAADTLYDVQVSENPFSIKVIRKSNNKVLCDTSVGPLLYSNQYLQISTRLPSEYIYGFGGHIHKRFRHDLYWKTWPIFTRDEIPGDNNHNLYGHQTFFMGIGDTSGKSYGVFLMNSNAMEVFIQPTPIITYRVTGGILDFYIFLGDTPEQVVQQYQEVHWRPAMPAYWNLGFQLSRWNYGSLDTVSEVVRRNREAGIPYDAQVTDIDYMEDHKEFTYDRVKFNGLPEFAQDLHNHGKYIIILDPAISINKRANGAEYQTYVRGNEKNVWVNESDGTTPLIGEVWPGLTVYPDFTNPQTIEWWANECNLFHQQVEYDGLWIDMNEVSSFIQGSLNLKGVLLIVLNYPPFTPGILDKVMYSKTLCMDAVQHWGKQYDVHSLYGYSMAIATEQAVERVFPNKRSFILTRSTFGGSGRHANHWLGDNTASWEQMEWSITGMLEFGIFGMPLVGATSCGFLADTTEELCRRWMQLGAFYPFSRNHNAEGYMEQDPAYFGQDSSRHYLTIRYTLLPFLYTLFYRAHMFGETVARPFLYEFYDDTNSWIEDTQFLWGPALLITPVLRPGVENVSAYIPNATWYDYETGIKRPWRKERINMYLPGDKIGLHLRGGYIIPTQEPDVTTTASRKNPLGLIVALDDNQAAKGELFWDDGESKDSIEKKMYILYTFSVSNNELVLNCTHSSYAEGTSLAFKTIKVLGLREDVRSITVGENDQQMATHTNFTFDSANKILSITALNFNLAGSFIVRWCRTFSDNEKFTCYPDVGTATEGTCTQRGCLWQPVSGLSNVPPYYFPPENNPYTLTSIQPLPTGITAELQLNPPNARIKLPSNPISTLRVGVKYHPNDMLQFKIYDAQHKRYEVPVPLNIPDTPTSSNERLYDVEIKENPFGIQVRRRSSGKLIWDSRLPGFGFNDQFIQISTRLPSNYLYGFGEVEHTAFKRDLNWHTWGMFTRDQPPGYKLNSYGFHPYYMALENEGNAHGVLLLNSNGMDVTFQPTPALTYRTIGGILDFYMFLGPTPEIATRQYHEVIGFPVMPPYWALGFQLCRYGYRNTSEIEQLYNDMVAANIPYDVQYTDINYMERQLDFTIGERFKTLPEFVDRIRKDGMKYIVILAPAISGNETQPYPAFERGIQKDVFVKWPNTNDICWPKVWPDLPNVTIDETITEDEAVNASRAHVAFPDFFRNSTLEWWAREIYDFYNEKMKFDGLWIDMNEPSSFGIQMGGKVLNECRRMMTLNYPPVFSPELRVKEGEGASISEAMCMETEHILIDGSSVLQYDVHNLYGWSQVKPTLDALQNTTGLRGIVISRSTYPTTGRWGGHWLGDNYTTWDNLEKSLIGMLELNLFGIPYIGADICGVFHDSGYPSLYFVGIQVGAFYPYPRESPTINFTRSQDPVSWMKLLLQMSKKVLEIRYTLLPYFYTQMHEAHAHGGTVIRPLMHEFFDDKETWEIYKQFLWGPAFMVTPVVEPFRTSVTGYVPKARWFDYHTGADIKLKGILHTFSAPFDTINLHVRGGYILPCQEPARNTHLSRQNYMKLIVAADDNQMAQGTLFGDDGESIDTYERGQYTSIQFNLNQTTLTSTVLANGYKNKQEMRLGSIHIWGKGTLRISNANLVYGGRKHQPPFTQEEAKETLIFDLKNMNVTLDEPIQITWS

| Inhibitory effect against isomaltose relative to Acarbose [1] | Activity inhibiting effect on β-glucosidase [2] | Structure (SMILES) | Rate of inhibition of blood sugar elevation 30 minutes ([3]; 5 mg/kg) | Rate of inhibition of blood sugar elevation 30 minutes ([3]; 10 mg/kg) | Rate of inhibition of blood sugar elevation 30 minutes ([3]; 25 mg/kg) | Effect in inhibiting the elevation of blood sugar levels compared with Acarbose ([3]; sucrose loading) |
| --- | --- | --- | --- | --- | --- | --- |
| more than 200 times | no activity inhibiting effect | O=S(=O)([O-])OC(CO)C(O)C[S+]1CC(O)C(O)C1CO (stereo not drawn) [SP] | 40.5 ± 2.3 | 62.1 ± 3.8 | 89.1 ± 3.5 | stronger effect in inhibiting the elevation of blood sugar levels than Acarbose |
|  |  | C[C@H]1O[C@H](O[C@H]2[C@H](O)[C@@H](O)[C@@H](O[C@H]3[C@H](O)[C@@H](O)C(O)O[C@@H]3CO)O[C@@H]2CO)[C@H](O)[C@@H](O)[C@@H]1N[C@H]1C=C(CO)[C@@H](O)[C@H](O)[C@H]1O (stereo partly drawn) [Acarbose, reference compound] | 33.4 ± 6.2 | 48.5 ± 6.9 | 73.8 ± 5.2 |  |
